Results: the NIST ThermoML archive (doi:10.1016/j.jct.2013.08.033)

Key:
[1] = xn = mol fraction of the nth substance listed; settings: 101 kPa, Liquid; for mass density: Pycnometric method; for speed of sound: Pulse-echo method
[2] = 101 kPa, Liquid; for mass density: Pycnometric method; for speed of sound: Pulse-echo method
[3] = molar heat capacity at constant pressure; settings: 101.33 kPa, Liquid, Small sample (50 mg) DSC
[4] = refractive index (Na D-line) (dimensionless); settings: 298.15 K; 101.33 kPa; Liquid; Standard Abbe refractometry

CCCCO [butan-1-ol] + CCC(O)CO
[1], x2 = 0
Settings | mass density [kg/m3] | speed of sound [m/s]
293.15 K | 809.65 | –
298.15 K | 805.81 | 1240.2
303.15 K | 801.98 | –
308.15 K | 798.13 | –

CCC(O)CO (stereo not drawn) [1,2-butanediol]
Settings | mass density, [2] [kg/m3] | molar heat capacity at constant pressure, [3] [J/K/mol] | speed of sound, [2] [m/s]
283.15 K | – | 222.86 | –
288.15 K | – | 225.62 | –
293.15 K | 1002.32 | 228.35 | –
298.15 K | 998.59 | 231.06 | 1449.9
303.15 K | 994.78 | 233.74 | –
308.15 K | 990.97 | 236.4 | –
313.15 K | – | 239.05 | –
318.15 K | – | 241.66 | –

Settings | refractive index
[4] | 1.4364

CCC(O)CO (stereo not drawn) [1,2-butanediol] + CCCCO
[1]
Settings | mass density, 293.15 K [kg/m3] | mass density, 298.15 K [kg/m3] | mass density, 303.15 K [kg/m3] | mass density, 308.15 K [kg/m3] | speed of sound, 298.15 K [m/s]
x1 = 0.05027 | 819.25 | 815.37 | 811.5 | 807.63 | 1248.1
x1 = 0.1001 | 828.73 | 824.84 | 820.98 | 817.06 | 1256.3
x1 = 0.1501 | 838.28 | 834.4 | 830.49 | 826.61 | 1264.1
x1 = 0.3 | 867.03 | 863.1 | 859.21 | 855.24 | 1289.6
x1 = 0.4004 | 886.32 | 882.4 | 878.47 | 874.54 | 1307.8
x1 = 0.4994 | 905.4 | 901.47 | 897.58 | 893.65 | 1327.2
x1 = 0.6002 | 924.85 | 920.95 | 917.07 | 913.17 | 1348.3
x1 = 0.7001 | 944.16 | 940.28 | 936.42 | 932.51 | 1371.1
x1 = 0.85 | 973.21 | 969.42 | 965.57 | 961.69 | 1408.2
x1 = 0.8998 | 982.93 | 979.12 | 975.25 | 971.41 | 1421.8
x1 = 0.9498 | 992.62 | 988.87 | 985.02 | 981.19 | 1435.5
x1 = 1 | 1002.32 | 998.59 | 994.78 | 990.97 | 1449.9

CCCCO [butan-1-ol]
Settings | mass density, [2] [kg/m3] | molar heat capacity at constant pressure, [3] [J/K/mol] | speed of sound, [2] [m/s]
283.15 K | – | 167.32 | –
288.15 K | – | 170.35 | –
293.15 K | 809.65 | 173.54 | –
298.15 K | 805.81 | 176.9 | 1240.2
303.15 K | 801.98 | 180.41 | –
308.15 K | 798.13 | 184.09 | –
313.15 K | – | 187.93 | –
318.15 K | – | 191.93 | –

Settings | refractive index
[4] | 1.3972
